The values that follow come from ChEMBL document CHEMBL1136553, “Synthesis and biological evaluation of novel 1 beta-methylcarbapenems with isothiazoloethenyl side chains” (Bioorg Med Chem Lett, 2003).

Data set [1] in a line: Stability to porcine renal DHP-I. It is filed as ADME, Sus scrofa. Particulars: pig.
The test system of a further data set is Streptococcus pyogenes. Put plainly: Antibacterial activity against Streptococcus pyogenes 308A. It is filed as functional.
For data set [2], the system named is Escherichia coli. The data set can be described thus: Antibacterial activity against Escherichia coli 1507E. Format: functional.
In data set [3] the test system is Pseudomonas aeruginosa. The data set can be described thus: Antibacterial activity against Pseudomonas aeruginosa 1592E. Format: functional.
The subject of data set [4] is Escherichia coli. The data set can be described thus: Antibacterial activity against Escherichia coli 078. It is filed as functional.
Another data set relates to Klebsiella aerogenes. The data set can be described thus: Antibacterial activity against Klebsiella aerogenes 1522E. Format: functional.
Data set [5] deals with Staphylococcus aureus. Put plainly: Antibacterial activity against Staphylococcus aureus 503. It is filed as functional.
Data set [6] relates to Pseudomonas aeruginosa. Put plainly: Antibacterial activity against Pseudomonas aeruginosa 9027. It is filed as functional.
A further data set has as its system Enterobacter cloacae. Put plainly: Antibacterial activity against Enterobacter cloacae 1321E. It is filed as functional.
Data set [7] relates to Pseudomonas aeruginosa. The data set can be described thus: Antibacterial activity against Pseudomonas aeruginosa 1771M. It is filed as functional.
For data set [8], the system named is Staphylococcus aureus. The data set can be described thus: Antibacterial activity against Staphylococcus aureus 285. Format: functional.
The test system of a further data set is Salmonella typhimurium. The data set can be described thus: Antibacterial activity against Salmonella Typhimurium. Format: functional, Salmonella enterica subsp. enterica serovar Typhimurium. As to conditions: Salmonella enterica.
The subject of data set [9] is Staphylococcus aureus. Put plainly: Antibacterial activity against Staphylococcus aureus SG 511. Format: functional.
For data set [10], the system named is Mus musculus. Put plainly: In vivo therapeutic efficacy in systemic infections caused by Escherichia coli 078 in mice, at a single subcutaneous administration. As to conditions: sc, read-out: PD50. Format: functional.
The subject of data set [11] is Mus musculus. Put plainly: In vivo therapeutic efficacy in systemic infections caused by Pseudomonas aeruginosa 1771M in mice, at a single subcutaneous administration. It is filed as functional. Particulars: sc, read-out: PD50.
Data set [12] has as its system Mus musculus. The data set can be described thus: In vivo therapeutic efficacy in systemic infections caused by Staphylococcus aureus Y-80-1953 in mice, at a single subcutaneous administration. It is filed as functional. As to conditions: sc, read-out: PD50.
Data set [13] relates to Mus musculus. Put plainly: In vivo therapeutic efficacy in systemic infections caused by Streptococcus pyogenes 77A in mice, at a single subcutaneous administration. Format: functional. As to conditions: sc, read-out: PD50.

The structures appear in SMILES notation. Values after ≈ are worked out from the molar mass of the structure shown.

For the molecule `C[C@@H](O)[C@H]1C(=O)N2C(C(=O)O)=C(S[C@@H]3CN[C@H](/C=C/c4ccsn4)C3)[C@H](C)[C@H]12`, the “Relative t1/2” value in data set [1] turned out to be 1.42. For the same molecule, the minimal inhibitory concentration (MIC) was 0.007 µg/mL (≈ 0.0166 µM) against Streptococcus pyogenes; 0.049 µg/mL (≈ 0.116 µM) against Escherichia coli [2]; 1.56 µg/mL (≈ 3.71 µM) against Pseudomonas aeruginosa [3]; 0.049 µg/mL (≈ 0.116 µM) in the data set on Escherichia coli [4]; 0.098 µg/mL (≈ 0.232 µM) against Klebsiella aerogenes; 0.013 µg/mL (≈ 0.0308 µM) with Staphylococcus aureus [5]. For the same molecule, the MIC came out at 1.56 µg/mL (≈ 3.71 µM) against Pseudomonas aeruginosa [6]; 0.025 µg/mL (≈ 0.0593 µM) against Enterobacter cloacae; 0.391 µg/mL (≈ 0.928 µM) against Pseudomonas aeruginosa [7]; 0.025 µg/mL (≈ 0.0593 µM) against Staphylococcus aureus [8]; 0.049 µg/mL (≈ 0.116 µM) in the data set with Salmonella typhimurium; 0.025 µg/mL (≈ 0.0593 µM) against Staphylococcus aureus [9].

Consider `C[C@@H](O)[C@H]1C(=O)N2C(C(=O)O)=C(S[C@@H]3CN[C@H](/C=C/c4ccns4)C3)[C@H](C)[C@H]12`, for which, in data set [1], the “Relative t1/2” value came out at 3.36. Besides, the ED50 in the data set with Mus musculus [10] was 0.32 mg/kg; in the data set with Mus musculus [11], 6.17 mg/kg; in the data set with Mus musculus [12], 1.27 mg/kg; with Mus musculus [13] it was 0.32 mg/kg. In addition, the MIC against Streptococcus pyogenes was determined as 0.004 µg/mL (≈ 0.00949 µM); in the data set with Escherichia coli [2], 0.025 µg/mL (≈ 0.0593 µM); with Pseudomonas aeruginosa [3] it was 0.391 µg/mL (≈ 0.928 µM); in the data set with Escherichia coli [4] it was 0.025 µg/mL (≈ 0.0593 µM); with Klebsiella aerogenes it was 0.049 µg/mL (≈ 0.116 µM); with Staphylococcus aureus [5] it was 0.013 µg/mL (≈ 0.0308 µM). In addition, the MIC with Pseudomonas aeruginosa [6] came to 0.391 µg/mL (≈ 0.928 µM); in the data set with Enterobacter cloacae, 0.049 µg/mL (≈ 0.116 µM); against Pseudomonas aeruginosa [7] it was 0.195 µg/mL (≈ 0.463 µM); with Staphylococcus aureus [8] it was 0.025 µg/mL (≈ 0.0593 µM); in the data set with Salmonella typhimurium, 0.049 µg/mL (≈ 0.116 µM); in the data set with Staphylococcus aureus [9], 0.013 µg/mL (≈ 0.0308 µM).

In the case of `C[C@@H](O)[C@H]1C(=O)N2C(C(=O)O)=C(S[C@@H]3CN[C@H](/C=C/c4ccno4)C3)[C@H](C)[C@H]12`, the “Relative t1/2” value in [1] was found to be 1.95. For the same molecule, the minimum inhibitory concentration (MIC) stood at 0.004 µg/mL (≈ 0.00986 µM) in the data set on Streptococcus pyogenes; 0.025 µg/mL (≈ 0.0617 µM) against Escherichia coli [2]; 0.195 µg/mL (≈ 0.481 µM) against Pseudomonas aeruginosa [3]; 0.025 µg/mL (≈ 0.0617 µM) against Escherichia coli [4]; 0.049 µg/mL (≈ 0.121 µM) against Klebsiella aerogenes; 0.013 µg/mL (≈ 0.0321 µM) against Staphylococcus aureus [5]. The MIC with Pseudomonas aeruginosa [6] was found to be 0.195 µg/mL (≈ 0.481 µM); with Enterobacter cloacae, 0.025 µg/mL (≈ 0.0617 µM); against Pseudomonas aeruginosa [7], 0.098 µg/mL (≈ 0.242 µM); against Staphylococcus aureus [8] it was 0.049 µg/mL (≈ 0.121 µM); in the data set with Salmonella typhimurium, 0.049 µg/mL (≈ 0.121 µM); against Staphylococcus aureus [9], 0.025 µg/mL (≈ 0.0617 µM).

In the case of `C[C@@H](O)[C@H]1C(=O)N2C(C(=O)O)=C(SCCNC=N)C[C@H]12.O` [IMIPENEM], the “Relative t1/2” value in [1] came to 0.19. In addition, the MIC was 0.007 µg/mL in the data set on Streptococcus pyogenes; 0.195 µg/mL in the data set on Escherichia coli [2]; 1.56 µg/mL against Pseudomonas aeruginosa [3]; 0.098 µg/mL in the data set on Escherichia coli [4]; 0.391 µg/mL against Klebsiella aerogenes; 0.013 µg/mL in the data set on Staphylococcus aureus [5]. Further, the MIC against Pseudomonas aeruginosa [6] amounted to 0.781 µg/mL; with Enterobacter cloacae it was 0.195 µg/mL; with Pseudomonas aeruginosa [7] it was 0.195 µg/mL; against Staphylococcus aureus [8], 0.025 µg/mL; against Salmonella typhimurium, 0.781 µg/mL; against Staphylococcus aureus [9], 0.025 µg/mL.

Turning to `C[C@@H](O)[C@H]1C(=O)N2C(C(=O)O)=C(S[C@@H]3CN[C@H](C(=O)N(C)C)C3)[C@H](C)[C@H]12` [MEROPENEM], the “Relative t1/2” value in data set [1] came to 1. The ED50 in the data set with Mus musculus [10] came out at 1.11 mg/kg; in the data set on Mus musculus [11], 5.43 mg/kg; in the data set on Mus musculus [12], 4.49 mg/kg; with Mus musculus [13], 4.72 mg/kg. Moreover, the MIC worked out at 0.013 µg/mL (≈ 0.0339 µM) in the data set on Streptococcus pyogenes; 0.025 µg/mL (≈ 0.0652 µM) against Escherichia coli [2]; 0.195 µg/mL (≈ 0.509 µM) against Pseudomonas aeruginosa [3]; 0.025 µg/mL (≈ 0.0652 µM) in the data set on Escherichia coli [4]; 0.049 µg/mL (≈ 0.128 µM) against Klebsiella aerogenes; 0.098 µg/mL (≈ 0.256 µM) against Staphylococcus aureus [5]. The MIC amounted to 0.195 µg/mL (≈ 0.509 µM) against Pseudomonas aeruginosa [6]; 0.025 µg/mL (≈ 0.0652 µM) in the data set with Enterobacter cloacae; 0.049 µg/mL (≈ 0.128 µM) with Pseudomonas aeruginosa [7]; 0.195 µg/mL (≈ 0.509 µM) in the data set with Staphylococcus aureus [8]; 0.049 µg/mL (≈ 0.128 µM) in the data set on Salmonella typhimurium; 0.195 µg/mL (≈ 0.509 µM) with Staphylococcus aureus [9].

Broadly, the MIC is the lowest concentration that inhibits growth of the organism. Read a low MIC as inhibition by little substance.
